The source of these data is ChEMBL document CHEMBL1201862, “PubChem BioAssay data set” (2004).

Molecules are shown by their SMILES.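 Step 1: Grow cells in 96-well plates. Step 2: Expose to compound for 48 hours at 5 concentrations. Step 3: Interpolate endpoints linearly; if unreached, use highest concentration. GI50 is the concentration that inhibits growth by half.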 Active and inactive are the calls of the source. Cut-off read from the data, not from the text of the source: active = GI50 up to about 1.1 µM and inactive = higher.

Some test systems named below: HCT-116; ACHN; KM12; HOP-62; OVCAR-4; CCRF-CEM; DMS-114; SNB-75; UO-31; HL-60; IGROV-1; NCI-H23; HCT-15; K562; SF-295; SW-620; EKVX.
What all share (test): DTP human tumour cell line panel, 48 h

For orientation: GI50 means the concentration at which growth is held to half of that of the control.

For the compound `COC(OC)c1cccc2c1C1(O)CCC3(CC21)OCCCCO3` (configuration not stated), the GI50 in the assay on HCT-116, in the assay on ACHN, in the assay with KM12, with HOP-62, in the assay with OVCAR-4 and in the assay with CCRF-CEM was > 100 µM (inactive) in each case. The GI50 in the assay on DMS-114, with SNB-75, in the assay on UO-31, in the assay on HL-60, with IGROV-1 and in the assay on NCI-H23 was > 100 µM (inactive) in each case. Further, the values for the GI50 in the assay on HCT-15, in the assay with K562 and with SF-295 were over 100 µM, > 100 µM (inactive) and > 100 µM (inactive), respectively.

Regarding `C[N+](C)=c1nc(N2CCc3ccccc3C2)ss1.[O-][Cl+3]([O-])([O-])[O-]`, the GI50 was 81.3 µM (inactive) with HCT-116; > 100 µM (inactive) in the assay on ACHN; > 100 µM (inactive) in the assay on KM12; > 100 µM (inactive) in the assay on HOP-62; > 100 µM (inactive) in the assay on OVCAR-4; 82.8 µM (inactive) in the assay with CCRF-CEM. For the same compound, the GI50 was 60.1 µM (inactive) in the assay on DMS-114; 83.6 µM (inactive) in the assay with SNB-75; > 100 µM (inactive) in the assay with UO-31; 34.2 µM (inactive) in the assay on HL-60; > 100 µM (inactive) with IGROV-1; 98.2 µM in the assay on HCT-15. For the same compound, the GI50 in the assay with K562 and in the assay on SW-620 was > 100 µM (inactive) each time.

`C=CCC1([C@H](C)[C@@H](OC(C)=O)c2cc(OC)c(OC)c(OC)c2)C[C@@H](OC)CCC1=O` (some centres not stated): the GI50 in the assay on HCT-116 was 13.1 µM (inactive); in the assay on EKVX it was 26.2 µM (inactive); in the assay on ACHN it was 19.8 µM (inactive); in the assay on KM12 it was 16.4 µM (inactive); in the assay with HOP-62 it was 35.7 µM (inactive); with OVCAR-4 it was 25.5 µM (inactive). For the same compound, the GI50 in the assay on CCRF-CEM is 3.3 µM (inactive); in the assay with DMS-114 it was 12.4 µM (inactive); with SNB-75, 18 µM (inactive); with HL-60 it was 12.8 µM (inactive); in the assay on IGROV-1 it was 19.1 µM (inactive); with NCI-H23, 9.59 µM (inactive). The GI50 with HCT-15 is 14.2 µM; with K562 it was 16.4 µM (inactive); in the assay with SF-295 it was 16 µM (inactive); with SW-620, 13.7 µM (inactive).

As to `CC1=C(C#N)C(N)=C2C(C)=C(C#N)C(N)=C12`, the GI50 in the assay with HCT-116, in the assay on EKVX, in the assay on KM12, with HOP-62, with OVCAR-4 and with CCRF-CEM was > 100 µM (inactive) in each case. The GI50 with DMS-114, in the assay on SNB-75, with UO-31, with HL-60, in the assay with IGROV-1 and with NCI-H23 was > 100 µM (inactive) throughout. In addition, the GI50 in the assay with HCT-15 is over 100 µM; in the assay with K562, > 100 µM (inactive); with SF-295, > 100 µM (inactive); with SW-620, > 100 µM (inactive).

Take `N/C(=N\N=C=C1C(=O)Nc2ccc(F)cc21)NO`: the GI50 is > 100 µM (inactive) with HCT-116; 95.5 µM (inactive) in the assay with EKVX; 59.8 µM (inactive) with ACHN; 41.4 µM (inactive) in the assay with KM12; > 100 µM (inactive) in the assay on HOP-62; > 100 µM (inactive) in the assay with OVCAR-4. The GI50 in the assay with CCRF-CEM was 98.2 µM (inactive); with DMS-114, > 100 µM (inactive); in the assay on SNB-75, 21.3 µM (inactive); in the assay on HL-60, 47.5 µM (inactive); in the assay with IGROV-1, > 100 µM (inactive); with NCI-H23 it was > 100 µM (inactive). The GI50 in the assay on HCT-15 was over 100 µM; in the assay on K562 it was 95.9 µM (inactive); in the assay on SF-295, > 100 µM (inactive); in the assay with SW-620, > 100 µM (inactive).
